According to paper PMC8911579, “(−)-Naringenin 4′,7-dimethyl Ether Isolated from Nardostachys jatamansi Relieves Pain through Inhibition of Multiple Channels” (Molecules, 2022):

Legend:
[1] = test system: native Nav currents in DRG neurons; assay: whole-cell patch-clamp, native sodium currents in DRG neurons; assay type: cell-based, mouse
Experimental: A reduction in amplitudes of action potentials manifested that (−)-NRG-DM may inhibit native sodium currents, which are mainly involved in the rising phase of an action potential. To record native sodium currents in acutely isolated DRG neurons, a 50 ms test pulse depolarized to −20 mV from a holding potential of −90 mV was applied. […] To understand how (−)-NRG-DM inhibited Nav channels, the effects of 30 µM compound (−)-NRG-DM on Nav channel kinetics were further characterized. […] In contrast to the lack of effect on the Nav channel activation, (−)-NRG-DM caused a depolarization shift of the steady-state inactivation. The V1/2 value was shifted from −65.72 ± 1.74 mV to −55.34 ± 2.14 mV by 30 µM (−)-NRG-DM (Figure 6G).
(§1) Dorsal root ganglia (DRG) were dissected from male C57BL/6 mice aged 4~6 weeks. The ganglia were first cut into small pieces and then digested at 37 °C for 20 min in DMEM containing 1 mg/mL collagenase type I and 0.25 mg/mL trypsin (Sigma-Aldrich). Subsequently, the digested small fragments were terminated and resuspended with DMEM/F12 growth medium (Gibco) supplemented with 10% fetal bovine serum (FBS) (Gibco). Finally, the dissociated DRG neurons were seeded onto 24-well plates with poly-L-lysine-coated coverslips and placed in a 37 °C, 5% CO2 incubator for at least 1 h before electrophysiological experiments.

[2] = molecular target: T1, TRPA1 channels (Homo sapiens, UniProt O75762); assay: whole-cell patch-clamp, TRPA1 stably expressed in HEK293 cells; assay type: cell-based; settings: 30 µM
T1 construct: expressed in transfected cells
T1 sequence (O75762 whole entry): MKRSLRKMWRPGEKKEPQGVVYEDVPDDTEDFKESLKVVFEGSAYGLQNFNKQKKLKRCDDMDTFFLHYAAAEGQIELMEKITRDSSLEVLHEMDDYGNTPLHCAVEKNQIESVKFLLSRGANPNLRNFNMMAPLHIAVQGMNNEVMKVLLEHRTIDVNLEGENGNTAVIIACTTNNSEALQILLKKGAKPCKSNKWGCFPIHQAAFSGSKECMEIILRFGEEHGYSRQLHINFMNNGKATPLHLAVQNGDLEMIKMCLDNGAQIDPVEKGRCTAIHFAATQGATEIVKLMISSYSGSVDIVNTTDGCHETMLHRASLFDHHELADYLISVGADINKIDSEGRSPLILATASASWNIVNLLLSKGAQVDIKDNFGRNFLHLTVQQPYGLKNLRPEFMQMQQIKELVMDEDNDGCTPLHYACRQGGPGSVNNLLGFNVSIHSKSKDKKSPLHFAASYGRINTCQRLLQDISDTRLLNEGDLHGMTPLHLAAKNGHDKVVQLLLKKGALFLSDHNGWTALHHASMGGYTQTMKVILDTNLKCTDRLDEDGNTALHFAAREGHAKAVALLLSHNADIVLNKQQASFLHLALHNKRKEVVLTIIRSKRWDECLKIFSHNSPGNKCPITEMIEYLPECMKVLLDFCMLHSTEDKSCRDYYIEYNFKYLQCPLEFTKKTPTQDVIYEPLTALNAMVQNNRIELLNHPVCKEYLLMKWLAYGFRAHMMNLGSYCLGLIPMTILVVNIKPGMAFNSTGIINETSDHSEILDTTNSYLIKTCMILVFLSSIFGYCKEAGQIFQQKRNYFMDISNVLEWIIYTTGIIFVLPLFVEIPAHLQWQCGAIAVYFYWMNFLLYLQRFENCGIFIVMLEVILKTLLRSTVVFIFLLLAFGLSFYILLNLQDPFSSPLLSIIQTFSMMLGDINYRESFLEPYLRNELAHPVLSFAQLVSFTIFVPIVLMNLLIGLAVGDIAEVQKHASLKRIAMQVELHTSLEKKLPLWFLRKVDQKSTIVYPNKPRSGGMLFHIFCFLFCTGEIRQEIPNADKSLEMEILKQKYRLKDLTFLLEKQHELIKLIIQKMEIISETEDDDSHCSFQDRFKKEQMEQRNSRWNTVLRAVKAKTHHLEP

[3] = test system: acutely isolated mouse small-diameter DRG neurons; assay: whole-cell current-clamp, action potential firing in DRG neurons; assay type: cell-based; settings: for action potential amplitude: 200 pA current injection, 500 ms, control 98.00 ± 6.19 mV
From the text: To investigate the underlying mechanism of (−)-NRG-DM-mediated analgesic activity, whole-cell current-clamp technology was applied to examine the effects of (−)-NRG-DM on the action potential firing in acutely isolated mouse small-diameter DRG neurons. The action potentials were evoked by a current injection of 200 pA for a 500 ms period. The threshold was defined by the first amplitude at which an action potential with a membrane potential larger than 0 mV was produced, and the amplitude was defined as the peak relative to the resting membrane potential. […] The amplitudes were reduced from 98.00 ± 6.19 mV to 95.00 ± 5.65 mV, 93.40 ± 8.27 mV, 86.80 ± 9.75 mV, and 74.40 ± 7.08 mV after perfusion of 1 μM, 3 μM, 10 μM, and 30 μM (−)-NRG-DM, respectively (Figure 4C, n = 5). Current threshold, the injection current required to elicit a single all-or-none action potential, was determined by applying 500 ms depolarizing currents of increasing magnitude. […] The inhibitory effects of (−)-NRG-DM on the firing frequency and the amplitudes of action potentials were partially reversible after washout.
as §1

[4] = test system: motor coordination in mice; assay: rotarod test (motor impairment / neurotoxicity); assay type: in vivo, ICR mice
Experimental: To exclude possible non-specific muscle relaxant or sedative effects, the effects of (−)-NRG-DM on motor performance were evaluated in the rotarod test.
To determine the neurotoxicity effects of (−)-NRG-DM, the standardized rotarod test was conducted in male ICR mice weighted 20 ± 2 g. The mice were divided at random into 4 groups (n = 10 for each group). The mice were placed on a rotarod appliance (YLS-4C, Bio-will, Shanghai, China) with a rod of 3 cm diameter, rotating at a constant speed of 6 rpm. The day before the compound test, all mice were pre-trained and only the animals able to remain on the rod for at least 1 min every time in three consecutive trials (3 min) were retained. During the test, the mice were measured in the rotarod test 0.5 h and 1 h after intraperitoneal administration of (−)-NRG-DM. The animals unable to remain on the rod for 3 consecutive periods were considered motor coordination impaired.

Structure (SMILES): COc1ccc([C@H]2CC(=O)c3c(O)cc(OC)cc3O2)cc1 [(−)-NRG-DM, (−)-naringenin 4′,7-dimethyl ether]
- V1/2 of activation, total Nav currents ([1]; 30 μM, control −15.34 ± 0.58 mV): −15.23 ± 0.56 mV
- V1/2 of steady-state inactivation, total Nav currents ([1]; 30 µM, control −65.72 ± 1.74 mV): −55.34 ± 2.14 mV
- IC50 ([1]; Mus musculus, DRG neuron, n = 5): 34.78 ± 0.14 µM
- reduction in INa ([1]; at plasma concentration from pharmacokinetic study (around 7 µM)): around 28%
- effect on TRPA1 currents and AITC-induced TRPA1 currents [2]: did not enhance any TRPA1 currents or inhibit AITC-induced TRPA1 currents either
- concentration at which significant reduction in number of action potentials started [3]: 10 µM
- action potential amplitude ([3]; 1 μM): 95.00 ± 5.65 mV
- action potential amplitude ([3]; 3 μM): 93.40 ± 8.27 mV
- action potential amplitude ([3]; 10 μM): 86.80 ± 9.75 mV
- action potential amplitude ([3]; 30 μM): 74.40 ± 7.08 mV
- firing frequency of DRG neurons ([3]; 1~30 μM): dose-dependently inhibited the firing frequency
- Fall nFall /nTest ([4]; 100 mg/kg i.p., 0.5 h): 0/10
- Motor Impairment (%) ([4]; 100 mg/kg i.p., 0.5 h): 0%
- Fall nFall /nTest ([4]; 100 mg/kg i.p., 1 h): 0/10
- Motor Impairment (%) ([4]; 100 mg/kg i.p., 1 h): 0%
- ability to remain on the rotating rod ([4]; 100 mg/kg, 200 mg/kg, or 400 mg/kg i.p.): no significant effects
- Fall nFall /nTest ([4]; 200 mg/kg i.p., 0.5 h): 1/10
- Motor Impairment (%) ([4]; 200 mg/kg i.p., 0.5 h): 10%
- Fall nFall /nTest ([4]; 200 mg/kg i.p., 1 h): 0/10
- Motor Impairment (%) ([4]; 200 mg/kg i.p., 1 h): 0%
- Fall nFall /nTest ([4]; 400 mg/kg i.p., 0.5 h): 0/10
- Motor Impairment (%) ([4]; 400 mg/kg i.p., 0.5 h): 0%
- Fall nFall /nTest ([4]; 400 mg/kg i.p., 1 h): 0/10
- Motor Impairment (%) ([4]; 400 mg/kg i.p., 1 h): 0%
- signs of toxicity ([4]; 100, 200, 400 mg/kg i.p., during rotarod test (0.5 and 1 h) and 24 h after administration): no sign of toxicity
